The record followed here is patent US8309563B2, “Quinazoline derivatives useful as anti-tumor medicament” (Shanghai Allist Pharmaceuticals, Inc., priority 2006, dated 2012).

Where two headings read alike, the source gives them in different places. Where only a bound is given, the exact number is not on record here.

In series [1] the test system is A431 cells (human epidermoid squamous carcinoma cell). In words: Anti-tumor experiment, improved MTT method, A431 cells, 72 h. The format is cell-based. As for the experimental part:
The inventive compounds were formulated into 5 concentrations. […] The incubation was continued for another 6 h, and 100 μl SDS was added to end the reaction.
1. Cell Line: A431 Human Epidermoid Squamous Carcinoma Cell

Series [2] deals with BT-474: Human Breast Cancer Cell. In words: Inhibition of cell proliferation, SRB method, BT-474 cells, 5 days. As to conditions: 120 h, Logit method, read-out: BT474 IC50. Type of series: cell-based. Here is the method: 2. Cell Line: BT-474: Human Breast Cancer Cell The cells were incubated with compounds of various concentrations (10-0.001 μm individually) for 5 days. The inhibition of cell proliferation was tested according to the SRB method, and the inhibitory rate was figure out. According to the inhibitory rate, the IC50 was calculated by the Logit method. The anti-tumor activities in vitro were compared.
Background: Sulforhodamine B stains cellular protein and so reports cell mass.

Series [3] has as its system human skin squamous cancer cell A431 grafted in a nude mouse. The series is described as follows: Anti-tumor effect on human skin squamous cancer cell A431 grafted in a nude mouse. The format is in vivo. Here is the method: A well-growth solid tumor of A431 was selected and incised into several pieces with the size of 2-3 mm; each was grafted into the right armpit of a mouse subcutaneously with a trocar respectively. 5 After 7days, the test compounds were administrated by gastric perfusion through the mouth for 13 days continuously. The long span (a) and the short span (b) of the tumor were measured with a vernier caliper every 4 days. According to the formula V=ab^2/2, the volume (mm^3) of the tumor could be calculated. The test animals were neck-off killed 23 days after the grafting. The test animals were anatomized to obtain the tumor. The tumors were weighed and the inhibitory rate was calculated.

The target of a further series is T1, Erb-B2 (Homo sapiens, UniProt P04626).
T1 construct: After treated with various compounds for 1.5 h, the cells were collected, cracked; endogenous in cells; host or cells: BT474 human breast cancer cells
T1 sequence (P04626 23-1255): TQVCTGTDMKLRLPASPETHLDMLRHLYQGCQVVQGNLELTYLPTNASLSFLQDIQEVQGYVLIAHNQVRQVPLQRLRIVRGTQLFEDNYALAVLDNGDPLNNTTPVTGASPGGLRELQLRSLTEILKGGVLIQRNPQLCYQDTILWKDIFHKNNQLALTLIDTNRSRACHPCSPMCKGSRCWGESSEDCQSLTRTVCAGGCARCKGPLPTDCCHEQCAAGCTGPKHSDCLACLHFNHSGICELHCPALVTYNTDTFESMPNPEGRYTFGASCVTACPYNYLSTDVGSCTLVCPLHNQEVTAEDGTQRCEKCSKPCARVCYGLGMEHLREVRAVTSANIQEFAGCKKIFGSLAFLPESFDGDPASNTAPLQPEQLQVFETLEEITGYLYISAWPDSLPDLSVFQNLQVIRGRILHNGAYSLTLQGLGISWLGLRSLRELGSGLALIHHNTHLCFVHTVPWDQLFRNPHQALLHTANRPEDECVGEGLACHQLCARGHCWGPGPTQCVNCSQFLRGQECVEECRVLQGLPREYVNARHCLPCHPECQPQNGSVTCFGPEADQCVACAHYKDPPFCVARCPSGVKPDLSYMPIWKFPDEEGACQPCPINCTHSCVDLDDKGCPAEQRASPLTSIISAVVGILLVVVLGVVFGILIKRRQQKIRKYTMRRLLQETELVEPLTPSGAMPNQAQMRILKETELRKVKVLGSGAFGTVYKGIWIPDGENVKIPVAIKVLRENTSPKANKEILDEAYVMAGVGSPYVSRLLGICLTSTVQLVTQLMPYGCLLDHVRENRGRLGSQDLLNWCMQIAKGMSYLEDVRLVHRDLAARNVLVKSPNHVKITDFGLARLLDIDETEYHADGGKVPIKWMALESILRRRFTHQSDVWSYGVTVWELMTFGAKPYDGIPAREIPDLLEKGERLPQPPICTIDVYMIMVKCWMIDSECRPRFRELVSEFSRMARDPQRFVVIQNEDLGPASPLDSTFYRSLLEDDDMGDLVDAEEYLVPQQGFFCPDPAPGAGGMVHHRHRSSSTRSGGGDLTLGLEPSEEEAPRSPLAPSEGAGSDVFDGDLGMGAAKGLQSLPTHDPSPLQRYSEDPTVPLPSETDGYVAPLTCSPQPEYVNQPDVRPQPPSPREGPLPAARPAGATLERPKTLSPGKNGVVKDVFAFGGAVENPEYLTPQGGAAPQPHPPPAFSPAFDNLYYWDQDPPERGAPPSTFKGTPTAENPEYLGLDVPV
In words: Inhibitory effect on the phosphorylation activity of Erb-B2 in BT474 cells (SDS-PAGE/blot, ECL). The format is cell-based. The note with it: BT474 cells treated […]; FIG. 1; comparison with Iressa. As for the experimental part: The inhibitory effect of compound 8 and compound 14 on the phosphorylation activity of Erb-B2: The concentration of the human breast cancer cells BT474 were adjusted to a suitable concentration, and inoculated into a plate. After treated with various compounds for 1.5 h, the cells were collected, cracked and the protein was adjusted to the same quantity. Following the protein-denaturation, SDS-PAGE was conducted, and transferred to nitric acid cellulose film; Hybriding with the anti-phosphorylation antibody (mono-anti), anti-β-tublin antibody (mono-anti) and anti-mouse-IgG antibody (bi-anti) respectively; Assayed by the ECL kit and the X-ray plate was exposed. According to the size and the density of the corresponding protein band, the inhibitory effect on Erb-B2 kinases can be evaluated.

Where [4] appears, read: A431 cells, * = two results from two experiments, read-out: A431 IC50.
Setting [5] is: Homo sapiens, A-431, 72 h, A431 cells, 72 h, class symbols, read-out: IC50.
The mark [6] stands for this setting: Homo sapiens, A-431, A431 cells, * = two results from two experiments, read-out: A431 IC50.

A word on the IC50: it is the point on the concentration scale where inhibition reaches its midpoint. Take `C=CC(=O)Nc1ccc2ncnc(Nc3ccc(OCc4cccc(F)c4)c(Cl)c3)c2c1` [Example 8, N-{4-[3-chloro-4-(3-fluorobenzyloxy)-phenylamino]-quinazolin6-yl}-acrylamide]: the IC50 in series [1] (setting [4]) is 0.11 µM; in series [1] (setting [5]), less than 1 µM; in series [1] (setting [6]), 0.18 µM; in series [2], 0.001 µM. In addition, the inhibition % in series [3] (25 mg/kg ig × 13, by tumor weight) was 29.99%; in series [3] (50 mg/kg ig × 13, by tumor weight), 38.67%; in series [3] (100 mg/kg ig × 13, by tumor weight) it was 43.63%. Further, the “Weight of the tumor (g) x ± SD” value is recorded as 0.79 ± 0.20 g in series [3] (25 mg/kg ig × 13, day 23 after grafting); 0.69 ± 0.17 g in series [3] (50 mg/kg ig × 13, day 23 after grafting); 0.64 ± 0.23 g in series [3] (100 mg/kg ig × 13, day 23 after grafting). Further, the “Weight of the test animals (g) (tumor-off)” value is reported as 21.58 ± 2.18 g in series [3] (25 mg/kg ig × 13, nude mouse A431 graft); 22.87 ± 3.96 g in series [3] (50 mg/kg ig × 13, nude mouse A431 graft); 22.13 ± 1.83 g in series [3] (100 mg/kg ig × 13, nude mouse A431 graft). Moreover, the “inhibitory activity on phosphorylation of Erb-B2 compared with Iressa” value on Erb-B2 is recorded as “more superior inhibitory activity”.
Turning to `Cc1ccc(S(=O)(=O)Nc2ccc3ncnc(Nc4ccc(OCc5cccc(F)c5)c(Cl)c4)c3c2)cc1` [Example 9, N-{4-[-3-chloro-4-(3-fluorobenzyloxy)-phenylamino]-quinazolin-6-yl}-p-methylbenzenesulfonamide], the IC50 in series [1] (setting [5]) is 1 to 10 µM; in series [1] (setting [6]), 1.22 µM; in series [2], 0.28 µM.
For the compound `CN(C)C/C=C/C(=O)Nc1ccc2ncnc(Nc3ccc(OCc4cccc(F)c4)c(Cl)c3)c2c1` [Example 10, N-{4-[3-chloro-4-(3-fluorobenzyloxy)-phenylamino]-quinazolin-6-yl}-E,4-(dimethylamino)-but-2-enamide], in series [1] (setting [5]), the 50% inhibitory concentration (IC50) lay in the range of 10 to 50 µM.
The same measure, in the same setting: the value for `CN(C)C/C=C/C(=O)Nc1cc2c(Nc3ccc(OCc4cccc(F)c4)c(Cl)c3)ncnc2cc1OCC(F)(F)F` [Example 12] was less than 1 µM; that for `COc1cc2ncnc(Nc3ccc(OCc4cccc(F)c4)c(Cl)c3)c2cc1NC(=O)/C=C/CN(C)C` [Example 13, N-{4-[3-chloro-4-(3-fluorobenzyloxy)-phenylamino]-7-methoxy-quinazolin-6-}-E-4-(dimethylamino)-but-2-enamide] was 1 to 10 µM.
Regarding `C=CC(=O)Nc1cc2c(Nc3ccc(OCc4cccc(F)c4)c(Cl)c3)ncnc2cc1OC` [Example 14], the IC50 in series [1] (setting [5]) is 1 to 10 µM; in series [1] (setting [6]), 1.72 µM; in series [2], 0.0069 µM. Besides, the “inhibitory activity on phosphorylation of Erb-B2 compared with Iressa” value against Erb-B2 was “more superior inhibitory activity”.
For `CN(C)C/C=C/C(=O)Nc1cc2c(Nc3ccc(OCc4cccc(F)c4)c(Cl)c3)ncnc2cc1Cl` [Example 15, N-{4-[3-chloro-4-(3-fluorobenzyloxy)-phenylamino]-7-chloro-quinazolin-6-yl}-E,4-(dimethylamino)-but-2-enamide], the IC50 in series [1] (setting [5]) is 1 to 10 µM.
Still for that read-out and setting: the result for `C=CC(=O)Nc1cc2c(Nc3ccc(OCc4cccc(F)c4)c(Cl)c3)ncnc2cc1Cl` [Example 16, N-{4-[3-chloro-4-(3-fluorobenzyloxy)-phenylamino]-7-chloro-quinazolin-6-yl}-acrylamide] reads 1 to 10 µM.
Take `CC(=O)Oc1ccc2ncnc(Nc3ccc(OCc4cccc(F)c4)c(Cl)c3)c2c1` [Example 17, O-{4-[-3-chloro-4-(3-fluorobenzyloxy)-phenylamino]-quinazolin-6-yl}-acetate]: the concentration for half-maximal inhibition (IC50) in series [1] (setting [5]) is less than 1 µM; in series [1] (setting [6]) it was 3.48 µM; in series [2], 0.043 µM.
On to `Oc1ccc2ncnc(Nc3ccc(OCc4cccc(F)c4)c(Cl)c3)c2c1` [Example 18, 4-[3-chloro-4-(3-fluorobenzyloxy)-phenylamino]-6-hydroxy-quinazoline], for which the concentration for half-maximal inhibition (IC50) in series [1] (setting [5]) is 10 to 50 µM.
Regarding `COCCOc1ccc2ncnc(Nc3ccc(OCc4cccc(F)c4)c(Cl)c3)c2c1` [Example 19], the IC50 is 1.7 µM in series [1] (setting [4]), 1 to 10 µM in series [1] (setting [5]), 3.29 µM in series [1] (setting [6]) and 0.088 µM in series [2].
With `Fc1cccc(COc2ccc(Nc3ncnc4ccc(OCCCN5CCOCC5)cc34)cc2Cl)c1` [Example 20, 4-[3-chloro-4-(3-fluorobenzyloxy)-phenylamino]-6-[3-(4-morpholino)-propoxy]-quinazoline], the IC50 in series [1] (setting [5]) is less than 1 µM; in series [1] (setting [6]), 1.69 µM; in series [2], 0.079 µM.
Consider `COc1cc2ncnc(Nc3ccc(OCc4cccc(F)c4)c(Cl)c3)c2cc1OC` [Example 21, 4-[3-chloro-4-(3-fluorobenzyloxy)-phenylamino]-6,7-dimethoxy-quinazoline], for which the values for the half-maximal inhibitory concentration (IC50) in series [1] (setting [5]), in series [1] (setting [6]) and in series [2] were 1 to 10 µM, 2.21 µM and 0.19 µM, respectively.
For the compound `Fc1cccc(COc2ccc(Nc3ncnc4ccc(Br)cc34)cc2Cl)c1` [Example 22, 4-[3-chloro-4-(3-fluorobenzyloxy)-phenylamino]-6-bromo-quinazoline], the IC50 in series [1] (setting [5]) lay in the range of 10 to 50 µM.
`COc1ccc(-c2ccc3ncnc(Nc4ccc(OCc5cccc(F)c5)c(Cl)c4)c3c2)cc1` [Example 23, 4-[3-chloro-4-(3-fluorobenzyloxy)-phenylamino]-6-(4-methoxy-phenyl)-quinazoline]: the IC50 in series [1] (setting [5]) was 10 to 50 µM; in series [1] (setting [6]), 24 µM; in series [2], 0.17 µM.
The like results for `OCc1cccc(-c2ccc3ncnc(Nc4ccc(OCc5cccc(F)c5)c(Cl)c4)c3c2)c1` [Example 24, 4-[3-chloro-4-(3-fluorobenzyloxy)-phenylamino]-6-(3-hydroxymethyl-phenyl)-quinazoline] were, in that order, 1 to 10 µM, 3.87 µM and 0.086 µM.
Turning to `CC(=O)OCc1cccc(-c2ccc3ncnc(Nc4ccc(OCc5cccc(F)c5)c(Cl)c4)c3c2)c1` [Example 25, 4-[3-chloro-4-(3-fluorobenzyloxy)-phenylamino]-6-(3-acetoxymethyl-phenyl)-quinazoline], the values for the IC50 in series [1] (setting [5]) and in series [2] were less than 1 µM and 0.062 µM, respectively.
Regarding `COCCOCc1cccc(-c2ccc3ncnc(Nc4ccc(OCc5cccc(F)c5)c(Cl)c4)c3c2)c1` [Example 26, 4-[3-chloro-4-(3-fluorobenzyloxy)-phenylamino]-6-[3-(methoxyethoxymethylene)-phenyl]-quinazoline], the half-maximal inhibitory concentration (IC50) in series [1] (setting [5]) is 1 to 10 µM; in series [1] (setting [6]), 4.04 µM; in series [2], 6.63 µM.
As for `OCc1ccc(-c2ccc3ncnc(Nc4ccc(OCc5cccc(F)c5)c(Cl)c4)c3c2)o1` [Example 27, 4-[3-chloro-4-(3-fluorobenzyloxy)-phenylamino]-6-(5-hydroxymethyl-furan-2-yl)-quinazoline], the IC50 is 1.03 µM in series [1] (setting [4]), 1 to 10 µM in series [1] (setting [5]), 1.53 µM in series [1] (setting [6]) and 0.023 µM in series [2].
For the compound `CS(=O)(=O)OCc1ccc(-c2ccc3ncnc(Nc4ccc(OCc5cccc(F)c5)c(Cl)c4)c3c2)o1` [Example 28, 4-[3-chloro-4-(3-fluorobenzyloxy)-phenylamino]-6-(5-methanesulfonyloxymethylene-furan-2-yl)-quinazoline], the half-inhibitory concentration (IC50) in series [1] (setting [5]) is 1 to 10 µM; in series [1] (setting [6]) it was 2.03 µM; in series [2], 0.049 µM.
Consider `CN(C)Cc1ccc(-c2ccc3ncnc(Nc4ccc(OCc5cccc(F)c5)c(Cl)c4)c3c2)o1` [Example 29, 4-[3-chloro-4-(3-flurobenzyloxy)-phenylamino]-6-(5-dimethylaminomethyl-furan-2-yl)-quinazoline], for which the IC50 in series [1] (setting [5]) lay in the range of 1 to 10 µM.
As to `COc1cc2ncnc(Nc3ccc(OCc4cccc(F)c4)c(Cl)c3)c2cc1OCCCN1CCOCC1` [Example 30, 4-[3-chloro-4-(3-fluorobenzyloxy)-phenylamino]-6-(3-(4-morpholino)propoxy)-7-methoxy-quinazoline], the concentration for half-maximal inhibition (IC50) in series [1] (setting [5]) is 1 to 10 µM; in series [1] (setting [6]) it was 9.26 µM; in series [2], 0.24 µM.
